Assays:
[1] = test system: Streptozotocin-induced diabetic model rats; assay: Oral glucose tolerance test in streptozotocin-induced diabetic model rats (hypoglycemic effect); type: in vivo, rat; settings: STZ diabetic SD/IGS rats; 1 mg/kg oral; glucose 2 g/kg oral; decrease in blood glucose ΔAUC 0-1 h relative to control group
Description: SD/IGS rats at 7 weeks of age (male, Charles River Laboratories Japan Inc.) were fasted for about 16 hours and then injected with 50 mg/kg streptozotocin (STZ) via the tail vein under ether anesthesia to prepare diabetic model rats. Similarly, another group of SD/IGS rats was injected with 1.25 mmol/L citric acid in physiological saline (1 mL/kg) via the tail vein under ether anesthesia to prepare normal control rats. At one week (8 weeks of age) after injection of STZ or 1.25 mmol/L citric acid in physiological saline, the rats were provided for an oral glucose tolerance test.
After the rats were fasted for about 16 hours, drug groups were each orally administered with a drug (1 mg/kg) suspended in a 0.5% aqueous carboxymethylcellulose (CMC) solution, while the control group was orally administered with a 0.5% aqueous CMC solution alone. At 5 minutes after drug administration, a glucose solution (2 g/kg) was orally administered and blood was collected at 5 points in total: before drug administration (0 hour) and 0.25, 0.5, 1 and 2 hours after oral administration.
Blood was collected from the orbital venous sinus of each rat under ether anesthesia using a heparin-coated blood collection tube, and centrifuged to separate plasma. Plasma glucose concentrations were quantified by measurement with a Glucose CII-Test Wako (Wako Pure Chemical Industries, Ltd., Japan). To determine the intensity of hypoglycemic effect, blood glucose levels measured between 0 and 1 hour in each drug group were analyzed by the trapezoidal method to calculate the area under the blood glucose-time curve (AUC), followed by basal subtraction to obtain a blood glucose increment (ΔAUC).

human SGLT1 = molecular target: T1, human SGLT1 (Homo sapiens, UniProt P13866); assay: Inhibition test for sodium-dependent sugar uptake in CHO-K1 cells stably expressing human SGLT1; type: cell-based; settings: [14C]methyl α-D-glucopyranoside uptake, 37° C., 30 minutes, read-out: human SGLT1 IC50 (50% inhibition of sugar uptake)
T1 construct: expressed in transfected cells; host or cells: CHO-K1
T1 sequence (P13866 1-664): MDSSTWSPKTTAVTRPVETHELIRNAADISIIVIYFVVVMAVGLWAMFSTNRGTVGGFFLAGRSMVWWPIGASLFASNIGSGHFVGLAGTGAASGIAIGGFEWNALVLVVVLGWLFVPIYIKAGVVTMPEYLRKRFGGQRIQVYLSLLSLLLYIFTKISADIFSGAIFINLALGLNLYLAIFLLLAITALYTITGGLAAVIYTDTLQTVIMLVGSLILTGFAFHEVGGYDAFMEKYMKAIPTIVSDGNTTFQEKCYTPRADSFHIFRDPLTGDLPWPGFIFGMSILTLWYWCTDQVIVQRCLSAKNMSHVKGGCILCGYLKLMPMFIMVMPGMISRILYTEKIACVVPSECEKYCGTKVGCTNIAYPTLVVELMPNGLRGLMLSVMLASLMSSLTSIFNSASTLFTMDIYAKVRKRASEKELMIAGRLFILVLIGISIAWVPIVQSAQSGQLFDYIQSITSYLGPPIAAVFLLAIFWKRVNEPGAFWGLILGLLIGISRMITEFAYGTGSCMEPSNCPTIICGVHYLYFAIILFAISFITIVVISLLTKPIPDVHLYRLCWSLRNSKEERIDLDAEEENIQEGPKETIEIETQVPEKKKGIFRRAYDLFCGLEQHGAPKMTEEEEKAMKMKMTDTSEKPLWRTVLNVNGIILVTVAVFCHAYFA
Description: (§1) A human SGLT1 sequence (NM_000343) was reverse-transcribed and amplified from human small intestine mRNA, and then introduced into pCMV-tag5A (Stratagene). Likewise, a human SGLT2 sequence (NM_003041) was prepared from human kidney mRNA in the same manner and introduced into pcDNA3.1+hygro (Invitrogen). The individual cloned sequences were confirmed to be identical with the sequences reported.
(§2) The human SGLT1 and human SGLT2 expression vectors were each transfected into CHO-K1 cells using lipofectamine 2000 (Invitrogen). The cells were cultured in the presence of 500 μg/mL geneticin (SGLT1) or hygromycin B (SGLT2) to select resistant strains and specific activity of sugar uptake in the system shown below was used as an indicator to obtain SGLT-expressing cells.
(§3) The cells stably expressing human SGLT1 or human SGLT2 were used for an inhibition test of sodium-dependent glucose uptake activity.
(§4) Pretreatment buffer (140 mM choline chloride, 2 mM KCl, 1 mM CaCl2, 1 mM MgCl2, 10 mM HEPES/5 mM Tris, pH 7.4) was added in a volume of 200 μL to human SGLT1-expressing cells and 2 mL to human SGLT2-expressing cells, followed by incubation for 20 minutes. The pretreatment buffer was removed and replaced with uptake buffer containing a test compound (1 mM methyl α-D-glucopyranoside (containing [^14C]methyl α-D-glucopyranoside), 145 mM NaCl, 2 mM KCl, 1 mM CaCl2, 1 mM MgCl2, 10 mM HEPES/5 mM Tris, pH 7.4) in a volume of 75 μL for SGLT1 and 200 μL for SGLT2. Uptake reaction was performed at 37° C. for 30 minutes (SGLT1) or 1 hour (SGLT2). After the reaction, the cells were washed twice with washing buffer (10 mM methyl α-D-glucopyranoside, 140 mM choline chloride, 2 mM KCl, 1 mM CaCl2, 1 mM MgCl2, 10 mM HEPES/5 mM Tris, pH 7.4) in a volume of 200 μL for SGLT1 and 2 mL for SGLT2, and then dissolved in a 0.2 M NaOH solution (75 μL for SGLT1 and 400 μL for SGLT2). A liquid scintillator (Perkin Elmer) was added and mixed well with each sample, followed by measurement of radioactivity using a microBETA for SGLT1 or a liquid scintillation counter for SGLT2 (Beckman Coulter). For the control group, uptake buffer containing no test compound was prepared. Moreover, another uptake buffer containing choline chloride instead of NaCl was also prepared for basal uptake.
(§5) For determination of IC50 values, test compounds prepared at 6 appropriate concentrations were used and their concentrations required for 50% inhibition of the amount of sugar uptake (IC50 values) were calculated relative to the amount of sugar uptake in the control group (100%).

human SGLT2 = molecular target: T2, human SGLT2 (Homo sapiens, UniProt P31639); assay: Inhibition test for sodium-dependent sugar uptake in CHO-K1 cells stably expressing human SGLT2; type: cell-based; settings: [14C]methyl α-D-glucopyranoside uptake, 37° C., 1 hour, read-out: human SGLT2 IC50 (50% inhibition of sugar uptake)
T2 construct: expressed in transfected cells; host or cells: CHO-K1
T2 sequence (P31639 1-672): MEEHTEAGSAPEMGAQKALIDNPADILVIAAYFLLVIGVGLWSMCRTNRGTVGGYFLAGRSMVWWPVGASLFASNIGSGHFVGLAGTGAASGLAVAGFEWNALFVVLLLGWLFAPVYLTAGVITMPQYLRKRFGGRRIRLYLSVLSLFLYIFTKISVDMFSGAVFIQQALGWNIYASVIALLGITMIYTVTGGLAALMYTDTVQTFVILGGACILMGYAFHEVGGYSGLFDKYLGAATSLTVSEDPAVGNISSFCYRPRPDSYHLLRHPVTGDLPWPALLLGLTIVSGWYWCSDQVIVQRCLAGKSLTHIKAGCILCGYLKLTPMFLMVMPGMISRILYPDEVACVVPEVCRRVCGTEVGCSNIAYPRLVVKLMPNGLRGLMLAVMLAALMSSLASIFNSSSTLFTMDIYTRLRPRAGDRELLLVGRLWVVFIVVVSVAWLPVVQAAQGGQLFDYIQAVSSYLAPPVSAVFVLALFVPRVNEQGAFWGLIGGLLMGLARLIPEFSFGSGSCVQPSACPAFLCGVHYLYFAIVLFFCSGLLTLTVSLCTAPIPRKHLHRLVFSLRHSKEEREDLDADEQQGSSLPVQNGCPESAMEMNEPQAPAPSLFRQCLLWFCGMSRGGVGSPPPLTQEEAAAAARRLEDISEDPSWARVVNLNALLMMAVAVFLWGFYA
Description: as §1, §2, §3, §4, §5

For `Cc1cc(O)c([C@@H]2S[C@H](CO)[C@@H](O)[C@H](O)[C@H]2O)cc1Cc1ccc(CCCC(=O)NC(C)(CO)CO)cc1` [Example 2, (1S)-1,5-anhydro-1-{2-hydroxy-5-[4-(4-{[2-hydroxy-1-(hydroxymethyl)-1-methylethyl]amino}-4-oxobutyl)benzyl]-4-methylphenyl}-1-thio-D-glucitol], the “STZ rat-OGTT (2 g/Kg) % inhibition ΔAUC0-1 h (mgh/dL) @1 mg/Kg” value [1] was 65.4 % inhibition, the IC50 (human SGLT1) was 0.022 µM and the IC50 (human SGLT2) was 0.021 µM.

For `Cc1cc(O)c([C@@H]2S[C@H](CO)[C@@H](O)[C@H](O)[C@H]2O)cc1Cc1ccc(CCCC(=O)NC(C)(C)CO)cc1` [Example 1, (1S)-1,5-anhydro-1-[2-hydroxy-5-(4-{4-[(2-hydroxy-1,1-dimethylethyl)amino]-4-oxobutyl}benzyl)-4-methylphenyl]-1-thio-D-glucitol], the “STZ rat-OGTT (2 g/Kg) % inhibition ΔAUC0-1 h (mgh/dL) @1 mg/Kg” value [1] was 70.4 % inhibition, the IC50 (human SGLT1) was 0.011 µM and the IC50 (human SGLT2) was 0.017 µM.

In the case of `Cc1cc(O)c([C@@H]2S[C@H](CO)[C@@H](O)[C@H](O)[C@H]2O)cc1Cc1ccc(CCCC(=O)NC(C)(C)C(N)=O)cc1` [Example 4, (1S)-1-[5-(4-{4-[(2-amino-1,1-dimethyl-2-oxoethyl)amino]-4-oxobutyl}benzyl)-2-hydroxy-4-methylphenyl]-1,5-anhydro-1-thio-D-glucitol], the “STZ rat-OGTT (2 g/Kg) % inhibition ΔAUC0-1 h (mgh/dL) @1 mg/Kg” value [1] is reported as 66.5 % inhibition, the IC50 (human SGLT1) is reported as 0.047 µM and the IC50 (human SGLT2) is reported as 0.049 µM.

With `Cc1cc(O)c([C@@H]2S[C@H](CO)[C@@H](O)[C@H](O)[C@H]2O)cc1Cc1ccc(CCCCC(=O)NC(C)(C)CO)cc1` [Example 8, (1S)-1,5-anhydro-1-[2-hydroxy-5-(4-{5-[(2-hydroxy-1,1-dimethylethyl)amino]-5-oxopentyl}benzyl)-4-methylphenyl]-1-thio-D-glucitol] the IC50 (human SGLT1) was 0.079 µM and the IC50 (human SGLT2) was 0.038 µM.

`Cc1cc(CCCC(=O)NC(C)(C)CO)ccc1Cc1cc([C@@H]2S[C@H](CO)[C@@H](O)[C@H](O)[C@H]2O)c(O)cc1C` [Example 5, (1S)-1,5-anhydro-1-[2-hydroxy-5-(4-{4-[(2-hydroxy-1,1-dimethylethyl)amino]-4-oxobutyl}-2-methylbenzyl)-4-methylphenyl]-1-thio-D-glucitol] showed an IC50 (human SGLT1) of 0.02 µM and an IC50 (human SGLT2) of 0.099 µM.

With `Cc1cc(O)c([C@@H]2S[C@H](CO)[C@@H](O)[C@H](O)[C@H]2O)cc1Cc1ccc(CCCC(=O)NC(CO)(CO)CO)cc1` [Example 3, (1S)-1,5-anhydro-1-{2-hydroxy-5-[4-(4-{[2-hydroxy-1,1-bis(hydroxymethyl)ethyl]amino}-4-oxobutyl)benzyl]-4-methylphenyl}-1-thio-D-glucitol] the “STZ rat-OGTT (2 g/Kg) % inhibition ΔAUC0-1 h (mgh/dL) @1 mg/Kg” value [1] was 60.8 % inhibition, the IC50 (human SGLT1) was 0.035 µM and the IC50 (human SGLT2) was 0.031 µM.

`Cc1cc(O)c([C@@H]2S[C@H](CO)[C@@H](O)[C@H](O)[C@H]2O)cc1Cc1ccc(CCCNC(=O)NC(C)(C)CO)cc1` [Example 6, (1S)-1-{5-[4-(3-{[(2-hydroxy-1,1-dimethylethyl)aminocarbonyl]amino}propyl)benzyl]-2-hydroxy-4-methylphenyl}-1,5-anhydro-1-thio-D-glucitol] was tested, and the “STZ rat-OGTT (2 g/Kg) % inhibition ΔAUC0-1 h (mgh/dL) @1 mg/Kg” value [1] was 69.2 % inhibition, the IC50 (human SGLT1) was 0.022 µM and the IC50 (human SGLT2) was 0.032 µM.

Reference: patent US8115017B2, “C-phenyl 1-thioglucitol compound” (Taisho Pharmaceutical Co., Ltd, priority 2006, dated 2012)
